pIC50: −log10 of the molar value.
Legend:
[1] = molecular target: Leucine-rich repeat serine/threonine-protein kinase 2 (Homo sapiens, UniProt Q5S007, G2019S); test: Inhibition of GST-tagged LRRK2 G2019S mutant (1326 to 2527 residues) (unknown origin) using peptide as substrate incubated for 15 mins in presence of ATP by immunoblotting analysis
[2] = molecular target: Rho-associated protein kinase 2 (Homo sapiens, UniProt O75116); test: Inhibition of His6-tagged ROCK2 (2 to 543 residues) (unknown origin) using peptide as substrate incubated for 15 mins in presence of ATP by immunoblotting analysis
Rho-associated protein kinase 2, sequence (O75116 whole entry, the tested form may be a part): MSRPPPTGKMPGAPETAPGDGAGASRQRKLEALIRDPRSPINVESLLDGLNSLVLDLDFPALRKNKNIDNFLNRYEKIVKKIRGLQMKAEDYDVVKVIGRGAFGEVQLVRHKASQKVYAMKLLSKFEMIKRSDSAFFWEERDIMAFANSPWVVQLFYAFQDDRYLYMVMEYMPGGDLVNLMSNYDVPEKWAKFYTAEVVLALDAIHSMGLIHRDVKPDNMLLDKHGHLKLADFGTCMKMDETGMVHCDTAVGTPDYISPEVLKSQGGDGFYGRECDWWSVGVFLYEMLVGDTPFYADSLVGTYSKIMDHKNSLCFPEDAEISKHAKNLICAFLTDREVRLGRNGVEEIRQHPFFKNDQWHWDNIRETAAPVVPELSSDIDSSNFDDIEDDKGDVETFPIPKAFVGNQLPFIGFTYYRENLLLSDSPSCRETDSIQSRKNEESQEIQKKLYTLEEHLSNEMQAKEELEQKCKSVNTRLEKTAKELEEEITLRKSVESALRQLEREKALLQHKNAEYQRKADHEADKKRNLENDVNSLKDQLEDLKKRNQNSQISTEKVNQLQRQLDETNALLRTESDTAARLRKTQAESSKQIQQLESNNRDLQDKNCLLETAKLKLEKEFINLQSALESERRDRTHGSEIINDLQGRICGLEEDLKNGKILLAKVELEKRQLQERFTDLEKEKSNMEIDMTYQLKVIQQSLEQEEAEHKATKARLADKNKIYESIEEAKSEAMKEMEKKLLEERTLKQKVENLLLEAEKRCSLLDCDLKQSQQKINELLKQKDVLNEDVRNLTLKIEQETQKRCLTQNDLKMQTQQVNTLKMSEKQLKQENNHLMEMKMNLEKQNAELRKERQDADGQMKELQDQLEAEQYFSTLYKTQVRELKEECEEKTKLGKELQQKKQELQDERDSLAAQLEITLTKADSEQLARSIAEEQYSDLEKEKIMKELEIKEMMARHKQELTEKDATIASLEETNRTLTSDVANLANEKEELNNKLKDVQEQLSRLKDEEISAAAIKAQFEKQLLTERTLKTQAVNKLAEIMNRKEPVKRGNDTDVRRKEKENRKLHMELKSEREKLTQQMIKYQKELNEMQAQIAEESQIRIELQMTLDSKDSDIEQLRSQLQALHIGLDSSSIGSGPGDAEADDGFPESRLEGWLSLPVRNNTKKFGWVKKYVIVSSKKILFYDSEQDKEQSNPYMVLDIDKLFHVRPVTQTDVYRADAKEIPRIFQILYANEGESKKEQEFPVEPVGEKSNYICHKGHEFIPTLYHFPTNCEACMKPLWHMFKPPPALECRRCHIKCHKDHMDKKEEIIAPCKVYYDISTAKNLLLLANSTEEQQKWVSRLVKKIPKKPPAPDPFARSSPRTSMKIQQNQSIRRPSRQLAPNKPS

[3] = molecular target: Leucine-rich repeat serine/threonine-protein kinase 2 (Homo sapiens, UniProt Q5S007); test: Inhibition of GST-tagged LRRK2 (1326 to 2527 residues) (unknown origin) using peptide as substrate incubated for 15 mins in presence of ATP by immunoblotting analysis
Leucine-rich repeat serine/threonine-protein kinase 2 (Homo sapiens, UniProt Q5S007), sequence (Q5S007 whole entry, the tested form may be a part): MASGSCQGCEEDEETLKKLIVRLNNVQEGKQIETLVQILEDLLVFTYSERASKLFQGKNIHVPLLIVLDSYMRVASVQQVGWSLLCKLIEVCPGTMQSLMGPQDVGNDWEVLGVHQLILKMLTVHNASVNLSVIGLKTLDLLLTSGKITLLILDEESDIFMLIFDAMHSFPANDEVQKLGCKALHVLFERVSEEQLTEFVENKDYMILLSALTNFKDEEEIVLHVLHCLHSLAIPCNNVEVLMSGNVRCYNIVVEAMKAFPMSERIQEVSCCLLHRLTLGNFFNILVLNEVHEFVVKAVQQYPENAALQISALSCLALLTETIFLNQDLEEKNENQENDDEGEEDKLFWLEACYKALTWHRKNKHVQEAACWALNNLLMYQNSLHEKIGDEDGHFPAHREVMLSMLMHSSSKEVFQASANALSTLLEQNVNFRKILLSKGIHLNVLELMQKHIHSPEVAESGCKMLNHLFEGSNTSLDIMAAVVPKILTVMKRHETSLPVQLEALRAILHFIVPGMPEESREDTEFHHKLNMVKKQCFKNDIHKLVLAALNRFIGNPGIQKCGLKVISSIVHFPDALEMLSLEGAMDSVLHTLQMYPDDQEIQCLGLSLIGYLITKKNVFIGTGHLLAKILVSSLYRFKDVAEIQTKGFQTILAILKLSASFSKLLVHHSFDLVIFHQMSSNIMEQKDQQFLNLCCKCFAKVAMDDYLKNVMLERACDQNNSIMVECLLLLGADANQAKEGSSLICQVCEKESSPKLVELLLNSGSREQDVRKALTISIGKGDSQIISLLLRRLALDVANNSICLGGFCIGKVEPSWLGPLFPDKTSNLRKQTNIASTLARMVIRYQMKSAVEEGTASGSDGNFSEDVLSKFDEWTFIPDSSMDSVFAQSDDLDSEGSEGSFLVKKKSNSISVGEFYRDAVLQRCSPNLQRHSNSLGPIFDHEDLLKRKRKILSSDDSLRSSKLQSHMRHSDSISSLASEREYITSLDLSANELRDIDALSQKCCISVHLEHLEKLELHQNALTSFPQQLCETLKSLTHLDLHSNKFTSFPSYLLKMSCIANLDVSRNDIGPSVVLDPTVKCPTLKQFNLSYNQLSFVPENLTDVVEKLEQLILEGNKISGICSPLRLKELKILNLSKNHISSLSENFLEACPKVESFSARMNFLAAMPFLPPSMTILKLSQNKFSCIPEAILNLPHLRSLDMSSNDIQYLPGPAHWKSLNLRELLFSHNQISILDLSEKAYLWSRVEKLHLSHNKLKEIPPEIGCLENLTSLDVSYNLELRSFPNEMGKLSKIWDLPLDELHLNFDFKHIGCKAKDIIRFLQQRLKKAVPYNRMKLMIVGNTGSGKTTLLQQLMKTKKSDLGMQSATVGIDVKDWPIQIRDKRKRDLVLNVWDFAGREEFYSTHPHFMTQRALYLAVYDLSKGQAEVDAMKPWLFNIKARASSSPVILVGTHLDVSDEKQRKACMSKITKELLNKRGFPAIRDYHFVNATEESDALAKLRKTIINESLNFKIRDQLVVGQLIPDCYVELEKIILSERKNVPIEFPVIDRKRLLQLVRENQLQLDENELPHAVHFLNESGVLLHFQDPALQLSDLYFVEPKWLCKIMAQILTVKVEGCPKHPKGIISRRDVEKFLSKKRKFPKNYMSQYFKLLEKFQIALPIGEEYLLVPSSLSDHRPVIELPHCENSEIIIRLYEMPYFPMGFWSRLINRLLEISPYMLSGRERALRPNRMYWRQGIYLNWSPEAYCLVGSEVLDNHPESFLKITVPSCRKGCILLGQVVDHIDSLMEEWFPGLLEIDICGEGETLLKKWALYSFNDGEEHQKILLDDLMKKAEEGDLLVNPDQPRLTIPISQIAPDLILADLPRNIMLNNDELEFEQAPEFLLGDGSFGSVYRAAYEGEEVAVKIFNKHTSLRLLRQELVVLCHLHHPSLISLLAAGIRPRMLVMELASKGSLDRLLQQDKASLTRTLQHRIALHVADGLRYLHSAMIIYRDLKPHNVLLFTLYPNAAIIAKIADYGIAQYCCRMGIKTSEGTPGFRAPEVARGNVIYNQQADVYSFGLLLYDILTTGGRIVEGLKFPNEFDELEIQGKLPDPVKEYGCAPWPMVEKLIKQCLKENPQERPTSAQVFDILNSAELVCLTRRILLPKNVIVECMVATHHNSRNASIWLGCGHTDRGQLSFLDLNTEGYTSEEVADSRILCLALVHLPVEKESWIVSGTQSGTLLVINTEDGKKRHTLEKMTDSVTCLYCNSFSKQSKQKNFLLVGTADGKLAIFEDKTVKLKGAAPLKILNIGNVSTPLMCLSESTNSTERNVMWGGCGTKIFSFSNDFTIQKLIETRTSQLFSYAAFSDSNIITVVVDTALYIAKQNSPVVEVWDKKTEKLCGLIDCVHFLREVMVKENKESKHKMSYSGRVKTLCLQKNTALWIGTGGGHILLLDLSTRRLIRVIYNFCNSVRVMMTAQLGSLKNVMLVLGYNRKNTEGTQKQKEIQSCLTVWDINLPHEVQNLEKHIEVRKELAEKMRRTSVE

Leucine-rich repeat serine/threonine-protein kinase 2 (Homo sapiens, UniProt Q5S007, G2019S), sequence (Q5S007 whole entry G2019S, the tested form may be a part): as the sequence (Q5S007 whole entry, the tested form may be a part) above, with G2019S counted along it

pIC50 [1]: < 5.00 | pIC50 [2]: 6.54 | pIC50 [3]: < 5.00
SMILES: O=S(=O)(NCCNC/C=C/c1ccc(Br)cc1)Nc1cccc2cnccc12
